How the values were obtained:
Type in all cases: biochemical
[1] = target: T1, Porcine trypsin (Sus scrofa, UniProt P00761); assay: Measurement of trypsin activity; conditions: at 500 nM; read-out: inhibited % of the trypsin activity
T1 construct: purchased Boehringer
Description: Measurement of Trypsin Activity
Porcine trypsin (Boehringer) was dissolved at a concentration of 1 mg/ml in 100 mM MOPS (3-[N-Morpholino]propanesulphonic acid) pH 7.3 containing 2 mM CaCl2. Prior to use, the enzyme was diluted 500 times to give a final concentration of 2 μg/ml.
Selected compounds were routinely stored as 5 mM stock solutions dissolved in DMSO (Dimethylsulphoxide) at −20° C. For the assay, aliquots were defrosted and a series of dilutions (×100, ×200, ×1,000, ×2,000, ×10,000, ×20,000 and ×100,000) made in 100 mM MOPS pH 7.3 containing 2 mM CaCl2. The substrate Bz-Phe-Val-Arg-pNA (Benzoyl-phenylalanyl-valyl-arginine-p-nitroanilide) was dissolved in DMSO to give a 10 mM solution. Immediately prior to use, the substrate was diluted to 0.3 mM (30 μl/ml) in 100 mM MOPS containing […].
(§1) The assay was set up in triplicate in a 96 well ELISA plate. 10 μl 2 μg/ml trypsin, 26 μl diluted inhibitor and 190 μl substrate were added sequentially. The plates were then incubated at 37° C. in a BioRad Benchmark Microplate Reader. The rate of release of p-nitroaniline was measured at […] over 10 minutes relative to that of the enzyme without inhibitor.

[2] = target: T2, Bovine Chymotrypsin (Bos taurus, UniProt P00766); assay: Measurement of chymotrypsin activity; conditions: at 500 nM; read-out: inhibited % of the chymotrypsin activity
T2 construct: purchased Sigma C4129
Description: Measurement of Chymotrypsin Activity
Bovine Chymotrypsin (Sigma Type 11 Cat. No. C4129) was dissolved at a concentration of 1 mg/ml in 100 mM Tris pH 7.8. Prior to use, the enzyme was diluted 20 fold immediately before use, with the same buffer.
Selected compounds were routinely stored as 5 mM stock solutions dissolved in DMSO (Dimethylsulphoxide) at −20° C. For the assay, aliquots were defrosted and a series of dilutions (×20, ×100, ×200, ×1,000, ×2,000, ×10,000, ×20,000 and ×100,000) made in 100 mM Tris pH 7.8. The substrate H-Ala-Ala-Phe-p-nitroanilide (H-alanyl-alanyl-phenylalanine-p-nitroanilide) (Bachem Cat. No. L-1095) was dissolved in DMSO to give a 10 mM stock and stored at 4° C. until use. Immediately prior to use, the substrate was diluted to 0.3 mM final concentration (30 μl/ml) just before use.
as §1, with “50” for “2”, “chymotrypsin, 50” for “trypsin, 26”

[3] = target: T3, human pancreatic lipase (Homo sapiens, UniProt P16233); assay: Lipase activity, quinine diimine dye calorimetric assay (Sigma Lipase-PS); conditions: at 500 nM; read-out: inhibited % of the pancreatic lipase activity
T3 sequence (P16233 17-465): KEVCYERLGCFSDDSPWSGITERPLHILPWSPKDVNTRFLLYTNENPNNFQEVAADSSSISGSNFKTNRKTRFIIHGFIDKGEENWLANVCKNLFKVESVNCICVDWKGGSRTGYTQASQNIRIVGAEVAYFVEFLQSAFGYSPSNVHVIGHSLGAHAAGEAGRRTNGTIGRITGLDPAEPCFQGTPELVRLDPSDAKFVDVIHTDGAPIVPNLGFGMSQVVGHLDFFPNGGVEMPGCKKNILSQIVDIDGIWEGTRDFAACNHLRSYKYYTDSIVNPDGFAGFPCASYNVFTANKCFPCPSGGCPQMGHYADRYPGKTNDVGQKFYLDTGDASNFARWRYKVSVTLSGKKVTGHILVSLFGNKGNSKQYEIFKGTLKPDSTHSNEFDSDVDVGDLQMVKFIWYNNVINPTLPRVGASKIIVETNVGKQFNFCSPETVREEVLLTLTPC
Description: Measurement of Lipase Activity Using a Quinine Diimine Dye Calorimetric Assay
The inhibitory activity of the selected compounds to pancreatic lipase was measured in the following assay available from Sigma Ltd (Lipase-PS™, catalog number 805-A):
The glycerol released from the action of pancreatic and monoglyceride lipase was oxidised to release H2O2. The peroxidase reaction step then produces a quinine dye which is pink in colour and absorbs light at a wavelength of 550 nm.
Individual test compounds were dissolved in DMSO (dimethyl sulphoxide) at 10 mM. DMSO was used to avoid any problems with compounds being water-insoluble. For individual compounds, the IC50 (concentration at which lipase activity is inhibited to one half of the maximum) was calculated by measuring the inhibitory activity from log-dose response curves using a range of inhibitor concentrations.
A range of compounds was assayed in the quinine diimine dye calorimetric assay which provides a rapid method to measure lipase inhibitory activity.

T1 sequence (P00761 9-231): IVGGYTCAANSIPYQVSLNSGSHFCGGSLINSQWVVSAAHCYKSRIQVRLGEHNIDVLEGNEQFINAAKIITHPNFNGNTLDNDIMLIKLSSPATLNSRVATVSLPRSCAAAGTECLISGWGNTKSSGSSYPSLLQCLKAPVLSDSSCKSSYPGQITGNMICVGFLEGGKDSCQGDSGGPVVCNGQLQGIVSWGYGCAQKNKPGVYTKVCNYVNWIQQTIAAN

CCCCCCCCCCCCCCCCOc1nc2ccc(C)cc2c(=O)o1 [Compound 18, 2-Hexadecyloxy-6-methyl-4H-3,1-benzoxazin-4-one]
inhibition at 0.5 µM [1]: 4% | inhibition at 0.5 µM [2]: 12.5% | inhibition at 0.5 µM [3]: 98.7%
